For 14 compounds, T/C results are on record in PubChem BioAssay AID200 (DTP/NCI, 2004).

This assay concerns B6C3F1 mice, B16 melanoma ip, median survival T/C. Put plainly: NCI In Vivo Anticancer Drug Screen. Data for tumor model B16 Melanoma (intraperitoneal) in B6C3F1 mice. To be noted: endpoint: median survival time, higher = longer survival. The method, then:
The antitumor activity of compounds was measured in mice bearing transplantable tumors. Survival or tumor size were measured and the results are expressed as the measurement made in the treated group (T) divided by the measurement made in the vehicle treated control group (C). The tumor model used in this assay is B16 Melanoma (intraperitoneal) in B6C3F1 mice

[1] abbreviates: dose: 12.5 mg/kg/injection, schedule: Q01DX009 (ip), vehicle: saline with Tween-80.
Setting [2] is: dose: 25.0 mg/kg/injection, schedule: Q01DX009 (ip), vehicle: saline with Tween-80.
The mark [3] stands for this setting: dose: 50.0 mg/kg/injection, schedule: Q01DX009 (ip), vehicle: saline with Tween-80.
[4] abbreviates: dose: 100.0 mg/kg/injection, schedule: Q01DX009 (ip), vehicle: saline with Tween-80.
[5] abbreviates: dose: 200.0 mg/kg/injection, schedule: Q01DX009 (ip), vehicle: saline with Tween-80.
The mark [6] stands for this setting: dose: 12.5 mg/kg/injection, schedule: Q01DX009 (ip), vehicle: saline.
Setting [7] is: dose: 25.0 mg/kg/injection, schedule: Q01DX009 (ip), vehicle: saline.
Setting [8] is: dose: 50.0 mg/kg/injection, schedule: Q01DX009 (ip), vehicle: saline.
[9] abbreviates: dose: 200.0 mg/kg/injection, schedule: Q01DX009 (ip), vehicle: saline.
Where [10] appears, read: dose: 400.0 mg/kg/injection, schedule: Q01DX009 (ip), vehicle: saline.

Structures are written as SMILES. Values joined by “and” are separate entries in the source; they are usually repeats but may differ in a detail not shown here. Equal values may be shown once. Inconclusive results and toxic doses are left out.

On to `CCCCNC(C)C1(O)Cc2c(O)c3c(c(O)c2C(OC2CC(N)C(O)C(C)O2)C1)C(=O)c1c(OC)cccc1C3=O` (stereo not given), for which the T/C by setting is: (dose: 5.0 mg/kg/injection, schedule: Q01DX009 (ip), vehicle: saline) 120 % of control; (dose: 10.0 mg/kg/injection, schedule: Q01DX009 (ip), vehicle: saline) 174 % of control and 193 % of control; (dose: 20.0 mg/kg/injection, schedule: Q01DX009 (ip), vehicle: saline) 160 % of control and 222 % of control; (dose: 40.0 mg/kg/injection, schedule: Q01DX009 (ip), vehicle: saline) 190 % of control and 333 % of control; (dose: 80.0 mg/kg/injection, schedule: Q01DX009 (ip), vehicle: saline) 232 % of control and 333 % of control.

For `CO[C@@]12[C@@H]3N[C@@H]3CN1C1=C(C(=O)C(NCC3CCCO3)=C(C)C1=O)[C@@H]2COC(N)=O` (stereo not given in full), the T/C runs as follows: (dose: 1.5 mg/kg/injection, schedule: Q04DX003 (ip), vehicle: distilled water + Tween-80) 179 % of control; (dose: 3.0 mg/kg/injection, schedule: Q04DX003 (ip), vehicle: distilled water + Tween-80) 172 % of control and 173 % of control and 178 % of control; (dose: 6.0 mg/kg/injection, schedule: Q04DX003 (ip), vehicle: distilled water + Tween-80) 179 % of control and 207 % of control and 208 % of control; (dose: 12.0 mg/kg/injection, schedule: Q04DX003 (ip), vehicle: distilled water + Tween-80) 185 % of control and 223 % of control and 240 % of control; (dose: 24.0 mg/kg/injection, schedule: Q04DX003 (ip), vehicle: distilled water + Tween-80) 174 % of control and 258 % of control and 326 % of control.

As for `CN(N=O)C(N)=O`, the T/C (dose: 12.0 mg/kg/injection, schedule: Q01DX009 (ip), vehicle: saline) was 188 % of control.

As for `Cc1ccc(S(=O)(=O)NC(=S)S)cc1`, the T/C was 92 % of control under setting [1]; 92 % of control under setting [2]; 95 % of control under setting [3]; 97 % of control under setting [4]; 94 % of control under setting [5].

As for `O=C1N=C(Oc2ccccc2)SC1=O`, the T/C is 110 % of control under setting [1], 98 % of control under setting [2], 103 % of control under setting [3] and 92 % of control under setting [4].

Take `Cn1c(-c2ccc(/C=N\N3CCN(/N=C/c4ccc(-c5c[n+]6ccsc6n5C)cc4)CC3)cc2)c[n+]2ccsc12`: the T/C is, setting by setting: (dose: 0.75 mg/kg/injection, schedule: Q01DX009 (ip), vehicle: saline with Tween-80) 103 % of control; (dose: 1.5 mg/kg/injection, schedule: Q01DX009 (ip), vehicle: saline with Tween-80) 104 % of control; (dose: 3.0 mg/kg/injection, schedule: Q01DX009 (ip), vehicle: saline with Tween-80) 113 % of control; (dose: 6.0 mg/kg/injection, schedule: Q01DX009 (ip), vehicle: saline with Tween-80) 113 % of control.

As for `COc1cccc2c1C(=O)c1c(O)c3c(c(O)c1C2=O)CC(O)(C(C)=O)CC3OC1CC(NC(=O)C(CCCCN)NC(=O)C2CCCN2)C(O)C(C)O1` (stereo not given), the T/C runs as follows: (dose: 1.25 mg/kg/injection, schedule: Q01DX001 (ip), vehicle: water) 112 % of control; (dose: 2.5 mg/kg/injection, schedule: Q01DX001 (ip), vehicle: water) 110 % of control; (dose: 20.0 mg/kg/injection, schedule: Q01DX001 (ip), vehicle: water) 176 % of control; (dose: 40.0 mg/kg/injection, schedule: Q01DX001 (ip), vehicle: water) 267 % of control.

With `ClC(Cl)(Cl)C1=NCc2nnn(Cc3ccccc3)c2N1`, the T/C (dose: 12.5 mg/kg/injection, schedule: Q01DX009 (ip), vehicle: distilled water + Tween-80) was 101 % of control; the T/C under setting [1] was 105 % of control; the T/C (dose: 25.0 mg/kg/injection, schedule: Q01DX009 (ip), vehicle: distilled water + Tween-80) is 96 % of control; the T/C under setting [2] is 110 % of control; the T/C (dose: 50.0 mg/kg/injection, schedule: Q01DX009 (ip), vehicle: distilled water + Tween-80) was 93 % of control; the T/C under setting [3] is 108 % of control. Further, the T/C (dose: 100.0 mg/kg/injection, schedule: Q01DX009 (ip), vehicle: distilled water + Tween-80) is 91 % of control; the T/C under setting [4] is 105 % of control; the T/C (dose: 200.0 mg/kg/injection, schedule: Q01DX009 (ip), vehicle: distilled water + Tween-80) is 101 % of control; the T/C under setting [5] is 95 % of control; the T/C (dose: 400.0 mg/kg/injection, schedule: Q01DX009 (ip), vehicle: distilled water + Tween-80) is 101 % of control; the T/C (dose: 400.0 mg/kg/injection, schedule: Q01DX009 (ip), vehicle: saline with Tween-80) was 95 % of control.

For the compound `CN(C(=S)S(=O)(=O)C12CC3CC(CC(C3)C1)C2)c1ccccc1`, the T/C (dose: 1.56 mg/kg/injection, schedule: Q01DX009 (ip), vehicle: Klucel (hydroxypropylcellulose) (HPC)) was 104 % of control; the T/C (dose: 3.12 mg/kg/injection, schedule: Q01DX009 (ip), vehicle: Klucel (hydroxypropylcellulose) (HPC)) is 98 % of control; the T/C (dose: 6.25 mg/kg/injection, schedule: Q01DX009 (ip), vehicle: Klucel (hydroxypropylcellulose) (HPC)) was 104 % of control; the T/C (dose: 12.5 mg/kg/injection, schedule: Q01DX009 (ip), vehicle: Klucel (hydroxypropylcellulose) (HPC)) was 101 % of control; the T/C (dose: 25.0 mg/kg/injection, schedule: Q01DX009 (ip), vehicle: Klucel (hydroxypropylcellulose) (HPC)) is 114 % of control; the T/C (dose: 50.0 mg/kg/injection, schedule: Q01DX009 (ip), vehicle: Klucel (hydroxypropylcellulose) (HPC)) is 104 % of control.

`OCC1(CO)COC2(CCCCC2)N1`: the T/C is, setting by setting: (dose: 6.25 mg/kg/injection, schedule: Q01DX009 (ip), vehicle: saline) 95 % of control; under setting [6], 119 % of control and 96 % of control and 103 % of control; under setting [7], 114 % of control and 102 % of control and 104 % of control; under setting [8], 114 % of control and 96 % of control and 104 % of control; (dose: 100.0 mg/kg/injection, schedule: Q01DX009 (ip), vehicle: saline) 112 % of control and 94 % of control and 104 % of control; under setting [9], 111 % of control and 99 % of control. Under setting [10], the T/C was 109 % of control and 93 % of control.

In the case of `COc1cc(NCc2ccc3nc(N)nc(N)c3c2C)cc(OC)c1OC`, the T/C reads like this: (dose: 2.5 mg/kg/injection, schedule: Q01DX009 (ip), vehicle: sodium bicarbonate) 110 % of control; (dose: 5.0 mg/kg/injection, schedule: Q01DX009 (ip), vehicle: sodium bicarbonate) 118 % of control; (dose: 6.25 mg/kg/injection, schedule: Q01DX009 (ip), vehicle: water) 108 % of control; (dose: 10.0 mg/kg/injection, schedule: Q01DX009 (ip), vehicle: sodium bicarbonate) 123 % of control; (dose: 12.5 mg/kg/injection, schedule: Q01DX009 (ip), vehicle: water) 114 % of control; (dose: 25.0 mg/kg/injection, schedule: Q01DX009 (ip), vehicle: water) 121 % of control.

As to `CC(=O)Oc1ccc2c3c1O[C@H]1[C@@H](OC(C)=O)C=C[C@H]4[C@@H](C2)N(C)CC[C@@]341`, the T/C was 101 % of control (dose: 0.5 mg/kg/injection, schedule: Q01DX009 (ip), vehicle: saline); 93 % of control (dose: 1.0 mg/kg/injection, schedule: Q01DX009 (ip), vehicle: saline); 90 % of control (dose: 2.0 mg/kg/injection, schedule: Q01DX009 (ip), vehicle: saline); 100 % of control (dose: 4.0 mg/kg/injection, schedule: Q01DX009 (ip), vehicle: saline); 98 % of control (dose: 8.0 mg/kg/injection, schedule: Q01DX009 (ip), vehicle: saline); 86 % of control (dose: 16.0 mg/kg/injection, schedule: Q01DX009 (ip), vehicle: saline). The T/C (dose: 32.0 mg/kg/injection, schedule: Q01DX009 (ip), vehicle: saline) is 93 % of control; the T/C (dose: 64.0 mg/kg/injection, schedule: Q01DX009 (ip), vehicle: saline) was 102 % of control; the T/C (dose: 128.0 mg/kg/injection, schedule: Q01DX009 (ip), vehicle: saline) is 110 % of control.

Turning to `S=c1c2[nH]cnc2ncn1CCSC1=NC=NC2=NC=NC21` (stereo not given), the T/C is, setting by setting: under setting [6], 98 % of control; under setting [7], 104 % of control; under setting [8], 92 % of control; under setting [10], 89 % of control.

Turning to `C=C(NC(=O)C(=C)NC(=O)c1csc(C2=NC3c4csc(n4)C4NC(=O)c5csc(n5)C(C(C)(O)C(C)O)NC(=O)C5CSC(=N5)/C(=C/C)NC(=O)C(C(C)O)NC(=O)c5csc(n5)C3(CC2)NC(=O)C(C)NC(=O)C(=C)NC(=O)C(=C)NC(=O)C(C(C)C)NC2C=Cc3c(C(C)O)cc(nc3C2O)C(=O)OC4C)n1)C(N)=O` (stereo not given), the T/C is, setting by setting: under setting [7], 121 % of control; under setting [8], 109 % of control; under setting [9], 121 % of control.
